Columns and labels:
[1] = Quantum yield measurements versus Acridine Yellow in EtOH; type: physicochemical; conditions: for φ (quantum yield): excitation 460 nm; for φ (%): quantum yield
Method: (§1) ^1H-NMR, ^19F-NMR and ^13C-NMR spectra were recorded on Bruker ACF300 (300 MHz), DPX300 (300 MHz) and AMX500 (500 MHz) spectrometers. High resolution mass spectra (ESI) were obtained on a Finnigan/MAT 95XL-T spectrometer. Spectroscopic and quantum yield data were measured on a SpectraMax M2 spectrophotometer (Molecular Devices). Data analysis was performed using GraphPrism 5.0. Analytical characterization was performed on a HPLC-MS (Agilent-1200 series) with a DAD detector and a single quadrupole mass spectrometer (6130 series) with an ESI probe. Analytical HPLC method: eluents, A: H2O (0.1% HCOOH), B: CH3CN (0.1% HCOOH), gradient 5% B to 95% B (10 min). Reverse-phase Phenomenex C18 Luna column (4.6×50 mm^2, 3.5 […]), flow rate: 1 mL/min.
Quantum yields were calculated by measuring the integrated emission area of the fluorescent spectra and comparing to the area measured for Acridine Yellow in EtOH when excited at 460 nm (Φfluorescence^AcridineYellow=0.47). Quantum yields for the amino-triazolyl-BODIPYs were calculated using the equation below, where F represents the area of fluorescent emission, η is the refractive index of the solvent, and Abs is absorbance at the excitation wavelength selected for standards and samples. Emission was integrated between 510 and 700 nm.

[2] = Absorbance and fluorescence emission spectra (SpectraMax M2); type: physicochemical; conditions: for λmax Abs. (nm) / λmax Em. (nm): MKAC compound library; for λmax Abs. (nm) / λmax Absorp. (nm): absorbance maximum; for λmax Em. (nm) / λmax Emission (nm): fluorescence emission maximum; for λmax Absorp. (nm) / λmax Emission (nm): MKCA compound library
Method: BDC-8 (Blue): absorbance λmax=473 nm, emission λmax=585 nm; MK101-8 (Green): absorbance λmax=474 nm, emission λmax=563 nm; MKHA374-48 (Yellow): absorbance λmax=468 nm, λem=557 nm. The corresponding spectra of a reported BODIPY (BD-27; Red) are also included for comparison: absorbance λmax=551 nm, emission λmax=568 nm. The structures of BDC-8, MK101-8, MKHA374-48 and BD-27 are also depicted.
as §1

Q: Which results are given for `O=C(CCl)Nc1ccc(C2=C3C=CC(N4CCCCC4)=[N+]3[B-](F)(F)n3c2ccc3-n2cc(-c3ccc(F)c(F)c3)nn2)cc1` [BDCCA-16]?
A: φ (quantum yield) ([1]; BDCCA library, Table 4): 0.7%; λmax Absorp. ([2]; BDCCA library, Table 4): 462 nm; λmax Emission ([2]; BDCCA library, Table 4): 581 nm

Q: Which results are given for `CC(C)Cc1cn(-c2ccc3n2[B-](F)(F)[N+]2=C(N4CCc5ccccc5C4)C=CC2=C3c2ccc(N)cc2)nn1` [MK66-43]?
A: φ (quantum yield) ([1]; MK library, Table 5): 0.14%; λmax Absorp. ([2]; MK library, Table 5): 480 nm; λmax Emission ([2]; MK library, Table 5): 582 nm

Q: With `CC(=O)Nc1ccc(C2=C3C=CC(NCc4ccccc4C)=[N+]3[B-](F)(F)n3c2ccc3-n2cc(CN(C)Cc3ccccc3)nn2)cc1` [MKAC101-18] as the compound, how does the “φ (%)” value ([1]; MKAC compound library) read?
A: 13.14%

Q: And the “λmax Abs. (nm)” value [2]?
A: 465 nm

Q: With `COc1ccc(OC)c(CNC2=[N+]3C(=C(c4ccc(NC(C)=O)cc4)c4ccc(-n5cc(C6CC6)nn5)n4[B-]3(F)F)C=C2)c1` [MKAC181-4] as the compound, how does the “φ (%)” value ([1]; MKAC compound library) read?
A: 15.43%

Q: What about the “λmax Abs. (nm)” value [2] of the same compound?
A: 464 nm

Q: What about the “λmax Em. (nm)” value [2] of the same compound?
A: 562 nm

Q: Which results are given for `Cc1ccccc1CNC1=[N+]2C(=C(c3ccc(N)cc3)c3ccc(-n4cc(C5CCCC5)nn4)n3[B-]2(F)F)C=C1` [MK101-5]?
A: φ (quantum yield) ([1]; MK library, Table 5): 0.58%; λmax Absorp. ([2]; MK library, Table 5): 475 nm; λmax Emission ([2]; MK library, Table 5): 565 nm

Q: With `COc1ccc(OC)c(CNC2=[N+]3C(=C(c4ccc(NC(=O)CCl)cc4)c4ccc(-n5cc(C6CCCC6)nn5)n4[B-]3(F)F)C=C2)c1` [MKCA181-5] as the compound, how does the “φ (%)” value ([1]; MKCA compound library) read?
A: 25.80%

Q: And the “λmax Absorp. (nm)” value [2]?
A: 465 nm

Q: And the “λmax Emission (nm)” value [2]?
A: 560 nm

Q: Which “φ (%)” value ([1]; MKCA compound library) does the source give for `CC1CN(C2=[N+]3C(=C(c4ccc(NC(=O)CCl)cc4)c4ccc(-n5cc(C6CC6)nn5)n4[B-]3(F)F)C=C2)CC(C)O1` (centres unmarked) [MKCA20-4] here?
A: 6.11%

Q: What about the “λmax Absorp. (nm)” value [2] of the same compound?
A: 466 nm

Q: And the “λmax Emission (nm)” value [2]?
A: 581 nm

Q: For `CCCC(C)c1cn(-c2ccc3n2[B-](F)(F)[N+]2=C(N4CCc5ccccc5C4)C=CC2=C3c2ccc(N)cc2)nn1` (centres unmarked) [MK66-3], which “φ (quantum yield)” value ([1]; MK library, Table 5) is on record?
A: 0.16%

Q: And the “λmax Absorp.” value ([2]; MK library, Table 5)?
A: 479 nm

Q: And the “λmax Emission” value ([2]; MK library, Table 5)?
A: 579 nm

Q: Which results are given for `CC(C)(C)c1cn(-c2ccc3n2[B-](F)(F)[N+]2=C(N4CCCCC4)C=CC2=C3c2ccc(N)cc2)nn1` [BDC-1]?
A: φ (quantum yield) ([1]; BDC library, Table 2): 0.18%; λmax Absorp. ([2]; BDC library, Table 2): 475 nm; λmax Emission ([2]; BDC library, Table 2): 593 nm

Q: Which “φ (quantum yield)” value ([1]; BDCCA library, Table 4) does the source give for `CCCCCCCCCCc1cn(-c2ccc3n2[B-](F)(F)[N+]2=C(N4CCCCC4)C=CC2=C3c2ccc(NC(=O)CCl)cc2)nn1` [BDCCA-49] here?
A: 1.2%

Q: What about the “λmax Absorp.” value ([2]; BDCCA library, Table 4) of the same compound?
A: 466 nm

Q: What about the “λmax Emission” value ([2]; BDCCA library, Table 4) of the same compound?
A: 575 nm

Q: With `CC(=O)Nc1ccc(C2=C3C=CC(N4CCCCC4)=[N+]3[B-](F)(F)n3c2ccc3-n2cc(C3CCCCC3)nn2)cc1` [BDCAC-6] as the compound, how does the “φ (quantum yield)” value ([1]; BDCAC library, Table 3) read?
A: 2.4%

Q: What about the “λmax Absorp.” value ([2]; BDCAC library, Table 3) of the same compound?
A: 467 nm

Q: And the “λmax Emission” value ([2]; BDCAC library, Table 3)?
A: 560 nm

Q: With `CCCc1cn(-c2ccc3n2[B-](F)(F)[N+]2=C(NCc4cc(F)cc(F)c4)C=CC2=C3c2ccc(NC(=O)CCl)cc2)nn1` [MKCA412-48] as the compound, how does the “φ (%)” value ([1]; MKCA compound library) read?
A: 36.09%

Q: And the “λmax Absorp. (nm)” value [2]?
A: 466 nm

Q: And the “λmax Emission (nm)” value [2]?
A: 561 nm

Q: Which “φ (quantum yield)” value ([1]; MK library, Table 5) does the source give for `CC1CN(C2=[N+]3C(=C(c4ccc(N)cc4)c4ccc(-n5cc(CN(C)Cc6ccccc6)nn5)n4[B-]3(F)F)C=C2)CC(C)O1` (centres unmarked) [MK20-18] here?
A: 0.23%

Q: What about the “λmax Absorp.” value ([2]; MK library, Table 5) of the same compound?
A: 477 nm

Q: What about the “λmax Emission” value ([2]; MK library, Table 5) of the same compound?
A: 582 nm

Q: With `COc1ccc(OC)c(CNC2=[N+]3C(=C(c4ccc(NC(=O)CCl)cc4)c4ccc(-n5cc(CC(C)C)nn5)n4[B-]3(F)F)C=C2)c1` [MKCA181-43] as the compound, how does the “φ (%)” value ([1]; MKCA compound library) read?
A: 21.21%

Q: What about the “λmax Absorp. (nm)” value [2] of the same compound?
A: 465 nm

Q: And the “λmax Emission (nm)” value [2]?
A: 564 nm

Q: For `CC(=O)Nc1ccc(C2=C3C=CC(N4CCCC4)=[N+]3[B-](F)(F)n3c2ccc3-n2cc(CC3CCCCC3)nn2)cc1` [MKAC215-8], which “φ (%)” value ([1]; MKAC compound library) is on record?
A: 1.17%

Q: And the “λmax Abs. (nm)” value [2]?
A: 462 nm

Q: And the “λmax Em. (nm)” value [2]?
A: 568 nm

Q: With `Cc1ccccc1CNC1=[N+]2C(=C(c3ccc(NC(=O)CCl)cc3)c3ccc(-n4cc(CC(C)C)nn4)n3[B-]2(F)F)C=C1` [MKCA101-43] as the compound, how does the “φ (%)” value ([1]; MKCA compound library) read?
A: 29.92%

Q: And the “λmax Absorp. (nm)” value [2]?
A: 466 nm

Q: What about the “λmax Emission (nm)” value [2] of the same compound?
A: 562 nm

Q: What does the source list for `CC(C)CCc1cn(-c2ccc3n2[B-](F)(F)[N+]2=C(N4CCCCC4)C=CC2=C3c2ccc(N)cc2)nn1` [BDC-36]?
A: φ (quantum yield) ([1]; BDC library, Table 2): 0.11%; λmax Absorp. ([2]; BDC library, Table 2): 476 nm; λmax Emission ([2]; BDC library, Table 2): 590 nm
